Test results reported in patent US20250136559A1, “SMO MODULATOR COMPOUNDS” (OMASS THERAPEUTICS LIMITED, priority 2022, published 2025).

Key:
Assay type in all cases: cell-based
human SMO D473H = target: T1, human SMO D473H (Homo sapiens, UniProt Q99835, D473H); assay: Human assay: Gli1 qPCR in MEF SMO-/- cells BacMam-transduced with hSMO D473H variant; settings: mSHh-treated, 24 hours; for IC50: Gli1 inhibition by qPCR, read-out: Human D473H pIC50 (converted); for Human D473H % Inh: percentage Gli1 inhibition
T1 construct: expressed in transfected cells; host or cells: SMO knock-out mouse embryonic fibroblasts (MEF SMO-/-), BacMam transduction
T1 sequence (Q99835 28-787 D473H): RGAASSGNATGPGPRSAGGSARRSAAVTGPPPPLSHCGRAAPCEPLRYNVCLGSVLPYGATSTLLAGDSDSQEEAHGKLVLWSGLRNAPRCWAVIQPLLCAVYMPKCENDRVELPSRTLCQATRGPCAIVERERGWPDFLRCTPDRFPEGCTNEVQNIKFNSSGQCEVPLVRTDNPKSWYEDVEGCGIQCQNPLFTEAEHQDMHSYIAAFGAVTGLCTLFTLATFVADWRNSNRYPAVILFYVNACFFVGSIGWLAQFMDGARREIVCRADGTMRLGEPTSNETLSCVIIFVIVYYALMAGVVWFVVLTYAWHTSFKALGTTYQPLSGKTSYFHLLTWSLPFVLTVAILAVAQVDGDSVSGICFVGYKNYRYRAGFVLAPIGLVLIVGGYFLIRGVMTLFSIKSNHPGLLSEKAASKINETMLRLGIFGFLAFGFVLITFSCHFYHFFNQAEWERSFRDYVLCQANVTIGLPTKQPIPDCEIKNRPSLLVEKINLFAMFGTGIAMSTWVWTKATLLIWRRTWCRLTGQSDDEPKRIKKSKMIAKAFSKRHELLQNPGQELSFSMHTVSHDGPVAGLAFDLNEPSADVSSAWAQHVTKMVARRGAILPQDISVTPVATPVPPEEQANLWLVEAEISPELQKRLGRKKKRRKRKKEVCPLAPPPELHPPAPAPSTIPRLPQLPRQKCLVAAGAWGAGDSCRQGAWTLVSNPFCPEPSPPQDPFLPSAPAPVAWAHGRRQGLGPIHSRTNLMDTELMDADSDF
Protocol: Cell culture. All materials were purchased from Sigma-Aldrich, unless otherwise stated.
(§1) BacMam transduction and compound treatment. MEF^SMO−/− cells were transduced with BacMam virus (MOI 1:10 in the presence of 4.2 mM valproic acid) containing either the hSMO WT or desired receptor variant sequence. Transduced cells were seeded at 6000 cells per well in a Poly-D-Lysine coated 384-well plate (Greiner) before the spent culture medium was removed on the following day and replaced with assay medium (OptiMEM (Gibco) supplemented with 50 U/mL penicillin and 5 mg/mL streptomycin (supplied as a mixture), 0.1 mMMEM Non-Essential Amino Acids (supplied as 100× solution, ThermoFisher), 1 mM sodium pyruvate and 10 mM HEPES) containing test compounds at 2.5× final assay concentrations.
(§2) Cell lysis and one-step qPCR. The Cells-to-CT™ 1-Step TaqMan® Kit was used in conjunction with TaqMan primer-probe assays for the detection of Gill (FAM, Mm00494654_m1) and Gusb (VIC, Mm01197698_m1) genes (all purchased from Life Technologies). Following 24 hours cell treatment, spent medium was removed and cells were washed with PBS before the application of lysis and stop solution as per manufacturer's instructions. The qPCR reactions were run in a 384-well PCR plate using master mix prepared according to manufacturer's instructions and cell lysate samples from treatment wells. Real-time PCR amplification was detected using the Bio-Rad CFX384 Touch PCR system. Four experimental replicates (two cell replicates and two qPCR replicates) were performed for each compound concentration tested. Real-time data were analysed using the CFX Maestro software (Bio-Rad) and obtained expression values were converted to percentage Gill inhibition by normalising to the average Gill expression of mSHh-treated control samples

mouse SMO^D473H = target: T2, mouse SMO^D473H (Mus musculus, UniProt P56726, D477H); assay: Mouse assay: Gli1 qPCR in MEF cells stably expressing mouse SMO D473H; settings: mSHh-treated, 24 hours; for IC50: Gli1 inhibition by qPCR, read-out: Mouse D473H pIC50 (converted); for Mouse D473H % Inh: percentage Gli1 inhibition
T2 construct: expressed in transfected cells
T2 sequence (P56726 33-793 D477H): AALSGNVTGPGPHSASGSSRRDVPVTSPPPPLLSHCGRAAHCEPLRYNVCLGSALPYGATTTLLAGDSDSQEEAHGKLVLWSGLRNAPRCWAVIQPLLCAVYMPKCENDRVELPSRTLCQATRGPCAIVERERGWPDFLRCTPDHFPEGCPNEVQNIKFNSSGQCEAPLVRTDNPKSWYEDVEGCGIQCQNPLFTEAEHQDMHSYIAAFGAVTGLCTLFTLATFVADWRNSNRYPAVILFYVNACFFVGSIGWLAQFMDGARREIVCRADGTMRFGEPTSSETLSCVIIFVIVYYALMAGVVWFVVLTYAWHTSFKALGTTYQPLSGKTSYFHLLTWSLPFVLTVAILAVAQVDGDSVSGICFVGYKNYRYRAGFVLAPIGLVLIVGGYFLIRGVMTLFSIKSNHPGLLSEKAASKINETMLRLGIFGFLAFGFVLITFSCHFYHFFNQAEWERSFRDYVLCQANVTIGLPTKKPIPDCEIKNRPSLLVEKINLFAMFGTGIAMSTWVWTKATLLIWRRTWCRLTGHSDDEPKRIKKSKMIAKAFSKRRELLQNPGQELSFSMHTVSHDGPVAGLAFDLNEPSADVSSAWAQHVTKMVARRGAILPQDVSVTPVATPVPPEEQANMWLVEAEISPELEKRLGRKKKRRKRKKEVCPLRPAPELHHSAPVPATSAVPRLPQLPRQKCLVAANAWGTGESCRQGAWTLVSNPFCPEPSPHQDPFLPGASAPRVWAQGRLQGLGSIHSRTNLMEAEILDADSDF
Procedure, shortened: (§3)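 MEFs stably expressing the SMO variant pre-treated with compound 1 h, then stimulated with mSHh and incubated 24 h at 37 °C. Gli1 mRNA quantified by one-step TaqMan qPCR with Gusb reference, four replicates per concentration; expressed as % Gli1 inhibition relative to mSHh-treated controls.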

human SMO W535L = target: T3, human SMO W535L (Homo sapiens, UniProt Q99835, W535L); assay: Human assay: Gli1 qPCR in MEF SMO-/- cells BacMam-transduced with hSMO W535L variant; settings: mSHh-treated, 24 hours; for IC50: Gli1 inhibition by qPCR, read-out: Human W535L pIC50 (converted); for Human W535L % Inh: percentage Gli1 inhibition
T3 construct: expressed in transfected cells; host or cells: SMO knock-out mouse embryonic fibroblasts (MEF SMO-/-), BacMam transduction
T3 sequence (Q99835 28-787 W535L): as the sequence (Q99835 28-787 D473H) above, with H446D, W508L counted along it
Protocol: (§4) Cell culture. All materials were purchased from Sigma-Aldrich, unless otherwise stated. SMO knock-out mouse embryonic fibroblasts (MEF^SMO−/−) were maintained in Dulbecco's modified Eagle's medium (DMEM)/high-glucose medium supplemented with 10% foetal bovine serum (FBS, Invitrogen), 50 U/mL penicillin and 5 mg/mL streptomycin (supplied as a mixture), 0.1 mMMEM Non-Essential Amino Acids (supplied as 100× solution, ThermoFisher) and 1 mM sodium pyruvate at 37° C. in a humidified 95% air/5% CO2 atmosphere.
as §1, with “concentrations. After 1 hour incubation, cells were treated with assay medium containing mSHh prepared at 2.5× of final assay concentrations specified in the text and incubated for a further 24 hours at 37° C. in a humidified 95% air/5% […] atmosphere prior to qPCR analysis.” for “concentrations.”
as §2

mouse SMO^WT = target: T4, mouse SMO^WT (Mus musculus, UniProt P56726); assay: Mouse assay: Gli1 qPCR in MEF cells stably expressing mouse SMO WT; settings: mSHh-treated, 24 hours; for IC50: Gli1 inhibition by qPCR, read-out: Mouse WT pIC50 (converted); for Mouse WT % Inh: percentage Gli1 inhibition
T4 construct: expressed in transfected cells
T4 sequence (P56726 33-793): as the sequence (P56726 33-793 D477H) above, with H445D counted along it
Procedure, shortened: as §3

hSMO WT = target: T5, hSMO WT (Homo sapiens, UniProt Q99835); assay: Human assay: Gli1 qPCR in MEF SMO-/- cells BacMam-transduced with hSMO WT; settings: mSHh-treated, 24 hours; for IC50: Gli1 inhibition by qPCR, read-out: Human WT pIC50 (converted); for Human WT % Inh: percentage Gli1 inhibition
T5 construct: expressed in transfected cells; host or cells: SMO knock-out mouse embryonic fibroblasts (MEF SMO-/-), BacMam transduction
T5 sequence (Q99835 28-787): as the sequence (Q99835 28-787 D473H) above, with H446D counted along it
Protocol: as §4
as §1, with “concentrations. After 1 hour incubation, cells were treated with assay medium containing mSHh prepared at 2.5× of final assay concentrations specified in the text and incubated for a further 24 hours at 37° C. in a humidified 95% air/5% […] atmosphere prior to qPCR analysis.” for “concentrations.”
as §2

mouse SMO^W535L = target: T6, mouse SMO^W535L (Mus musculus, UniProt P56726, W539L); assay: Mouse assay: Gli1 qPCR in MEF cells stably expressing mouse SMO W535L; settings: mSHh-treated, 24 hours; for IC50: Gli1 inhibition by qPCR, read-out: Mouse W535L pIC50 (converted); for Mouse W535L % Inh: percentage Gli1 inhibition
T6 construct: expressed in transfected cells
T6 sequence (P56726 33-793 W539L): as the sequence (P56726 33-793 D477H) above, with H445D, W507L counted along it
Procedure, shortened: as §3

IC50 (human SMO D473H) | Human D473H % Inh (human SMO D473H) | IC50 (mouse SMO^D473H) | Mouse D473H % Inh (mouse SMO^D473H) | IC50 (human SMO W535L) | Human W535L % Inh (human SMO W535L) | IC50 (mouse SMO^WT) | Mouse WT % Inh (mouse SMO^WT) | IC50 (hSMO WT) | Human WT % Inh (hSMO WT) | IC50 (mouse SMO^W535L) | Mouse W535L % Inh (mouse SMO^W535L) | SMILES
1260 nM | 77.2% | 158 nM | 89.9% | 100 nM | 88.4% | 15.8 nM | 96.6% | 31.6 nM | 85.9% | 158 nM | 61.9% | O=C(Nc1ccc(-c2nc(C3CC3)n[nH]2)cc1)c1cccc(CN2CCS(=O)(=O)CC2)c1 [Example 3-3, N-[4-(3-Cyclopropyl-1H-1,2,4-triazol-5-yl)phenyl]-3-[(1,1-dioxo-1,4-thiazinan-4-yl)methyl]benzamide]
100 nM | 107.1% | 15.8 nM | 97.7% | 12.6 nM | 86.3% | 5.01 nM | 96.8% | 3.16 nM | 95.4% | 10 nM | 59.5% | O=C(Nc1ccc(-c2cc(C3CC3)n[nH]2)cc1)c1cccc(CN2CCS(=O)(=O)CC2)c1 [Example 4-19, N-[4-(5-Cyclopropyl-1H-pyrazol-3-yl)phenyl]-3-[(1,1-dioxo-1,4-thiazinan-4-yl)methyl]benzamide]
794 nM | 107.7% | 126 nM | 97.0% | 39.8 nM | 85.9% | 7.94 nM | 97.3% |  |  | 251 nM | 66.4% | Cn1nc(-c2ccc(NC(=O)c3cccc(CN4CCS(=O)(=O)CC4)c3)cn2)cc1C1CC1 [Example 5-4, N-[6-(5-Cyclopropyl-1-methylpyrazol-3-yl)pyridin-3-yl]-3-[(1,1-dioxo-1,4-thiazinan-4-yl)methyl]benzamide]
631 nM | 76.5% | 39.8 nM | 95.4% | 5.01 nM | 87.8% | 5.01 nM | 95.4% |  |  | 39.8 nM | 60.2% | O=C(Nc1ccc(-c2nc(C3CC3)n[nH]2)cc1)c1cc(Cl)cc(CN2CCS(=O)(=O)CC2)c1 [Example 2-4, 3-Chloro-N-[4-(5-cyclopropyl-1H-1,2,4-triazol-3-yl)phenyl]-5-[(1,1-dioxo-1,4-thiazinan-4-yl)methyl]benzamide]
50.1 nM | 100.2% | 12.6 nM | 98.1% | 12.6 nM | 77.8% | 6.31 nM | 97.8% | 5.01 nM | 88.4% | 63.1 nM | 54.8% | CC(C)c1noc(-c2ccc(NC(=O)c3cccc(CN4CCS(=O)(=O)CC4)c3)cc2)n1 [Example 4-10, 3-[(1,1-Dioxo-1,4-thiazinan-4-yl)methyl]-N-[4-(3-propan-2-yl-1,2,4-oxadiazol-5-yl)phenyl]benzamide]
31.6 nM | 104.2% | 2.51 nM | 98.4% | 25.1 nM | 104.6% | 0.631 nM | 97.5% | 0.501 nM | 97.8% | 15.8 nM | 75.3% | Cc1oc(-c2ccc(NC(=O)c3cccc(CN4CCS(=O)(=O)CC4)c3)cc2)nc1C1CC1 [Example 4-2, N-[4-(4-Cyclopropyl-5-methyl-1,3-oxazol-2-yl)phenyl]-3-[(1,1-dioxo-1,4-thiazinan-4-yl)methyl]benzamide]
200 nM | 85% | 126 nM | 95.6% | 20 nM | 78.2% | 15.8 nM | 97.3% |  |  | 200 nM | 63.3% | CC1CN(Cc2cccc(C(=O)Nc3ccc(-c4nc(C5CC5)n[nH]4)cc3)c2)CCS1(=O)=O (stereo not shown) [Example 1-2, N-[4-(3-Cyclopropyl-1H-1,2,4-triazol-5-yl)phenyl]-3-[(2-methyl-1,1-dioxo-1,4-thiazinan-4-yl)methyl]benzamide]
39.8 nM | 114.2% | 7.94 nM | 97.4% | 20 nM | 102.7% | 2 nM | 97.2% | 0.794 nM | 99.3% | 6.31 nM | 68.6% | O=C(Nc1ccc(-c2noc(Cc3ccc(F)cc3)n2)cc1)c1cccc(CN2CCS(=O)(=O)CC2)c1 [Example 4-17, 3-[(1,1-Dioxo-1,4-thiazinan-4-yl)methyl]-N-[4-[5-[(4-fluorophenyl)methyl]-1,2,4-oxadiazol-3-yl]phenyl]benzamide]
63.1 nM | 111.9% | 6.31 nM | 97.6% | 6.31 nM | 92.5% | 0.794 nM | 97.0% | 0.794 nM | 99.2% | 5.01 nM | 58.6% | Cc1c(-c2ccc(NC(=O)c3ccc(Cl)c(CN4CCS(=O)(=O)CC4)c3)cc2)nn(C)c1C1CC1 [Example 4-26, 4-Chloro-N-[4-(5-cyclopropyl-1,4-dimethylpyrazol-3-yl)phenyl]-3-[(1,1-dioxo-1,4-thiazinan-4-yl)methyl]benzamide]
 | 45.4% |  |  |  | 92.6% |  |  |  | 100.1% |  |  | CS(=O)(=O)c1ccc(C(=O)Nc2ccc(Cl)c(-c3ccccn3)c2)c(Cl)c1 [Vismodegib, reference compound]
794 nM | 73.6% | 126 nM | 91.3% | 7.94 nM | 79.1% | 10 nM | 95.8% |  |  | 126 nM | 67.2% | O=C(Nc1ccc(-c2nc(C3CC3)n[nH]2)cc1)c1cc(F)cc(CN2CCS(=O)(=O)CC2)c1 [Example 2-2, N-[4-(5-Cyclopropyl-1H-1,2,4-triazol-3-yl)phenyl]-3-[(1,1-dioxo-1,4-thiazinan-4-yl)methyl]-5-fluorobenzamide]
